≈ marks a conversion by molar mass, not a printed value. Where “and” joins values, the source holds several entries; their conditions need not be identical. Equal entries are not always repeated. Where two headings read alike, the source gives them in different places.
Legend:
[1] = Lactating rats, exposure of pups through milk; format: in vivo, rat; conditions: administered to lactating rats
Description: The Centers for Disease Control and Prevention recommends that HIV-1-infected mothers in the United States not breastfeed their infants to avoid risking postnatal transmission of HIV-1 infection. It is not known if the components of the Combination are present in human breast milk, affect human milk production, or have effects on the breastfed infant. […] Animal Data: Cabotegravir: […] Rilpivirine: […]

[2] = Pharmacokinetic properties of the components of the Combination (Table 6); design: species or system human; conditions: in vivo
[3] = Binding to human plasma proteins; format: in vitro ADME; conditions: read-out: % Bound to human plasma proteins (converted)
[4] = Mass balance studies, single-dose oral [14C] drug; format: in vivo, human; conditions: single-dose oral [14C] drug
[5] = Multiple-dose pharmacokinetics after monthly IM injections, population PK post-hoc estimates FLAIR and ATLAS; format: in vivo, human; conditions: 400-mg monthly IM injection
[6] = molecular target: T1, renal organic anion transporters (OAT)1 (Homo sapiens, UniProt Q4U2R8); test: In vitro transporter inhibition, OAT1; format: in vitro ADME
T1 sequence (Q4U2R8 1-563): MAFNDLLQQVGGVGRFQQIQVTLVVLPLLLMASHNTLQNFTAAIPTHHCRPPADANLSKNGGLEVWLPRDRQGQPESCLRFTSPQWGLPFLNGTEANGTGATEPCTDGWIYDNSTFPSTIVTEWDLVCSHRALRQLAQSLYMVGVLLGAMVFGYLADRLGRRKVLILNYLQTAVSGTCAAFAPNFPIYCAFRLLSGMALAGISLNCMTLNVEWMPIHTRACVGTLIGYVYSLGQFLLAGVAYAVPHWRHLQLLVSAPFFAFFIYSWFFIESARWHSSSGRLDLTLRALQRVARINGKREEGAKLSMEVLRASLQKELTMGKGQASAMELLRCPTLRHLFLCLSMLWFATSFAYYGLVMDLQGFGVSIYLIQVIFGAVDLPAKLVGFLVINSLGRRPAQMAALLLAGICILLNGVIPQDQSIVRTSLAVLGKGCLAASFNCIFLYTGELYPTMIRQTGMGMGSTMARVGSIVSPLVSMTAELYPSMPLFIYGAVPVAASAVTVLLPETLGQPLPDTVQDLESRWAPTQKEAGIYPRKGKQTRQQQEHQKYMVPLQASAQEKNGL
Description: (§1) However, based on PBPK modeling, no interaction with OAT substrates is expected at clinically relevant concentrations.

OAT3 = molecular target: T2, OAT3 (Homo sapiens, UniProt Q8TCC7); test: In vitro transporter inhibition, OAT3; format: in vitro ADME
T2 sequence (Q8TCC7 1-542): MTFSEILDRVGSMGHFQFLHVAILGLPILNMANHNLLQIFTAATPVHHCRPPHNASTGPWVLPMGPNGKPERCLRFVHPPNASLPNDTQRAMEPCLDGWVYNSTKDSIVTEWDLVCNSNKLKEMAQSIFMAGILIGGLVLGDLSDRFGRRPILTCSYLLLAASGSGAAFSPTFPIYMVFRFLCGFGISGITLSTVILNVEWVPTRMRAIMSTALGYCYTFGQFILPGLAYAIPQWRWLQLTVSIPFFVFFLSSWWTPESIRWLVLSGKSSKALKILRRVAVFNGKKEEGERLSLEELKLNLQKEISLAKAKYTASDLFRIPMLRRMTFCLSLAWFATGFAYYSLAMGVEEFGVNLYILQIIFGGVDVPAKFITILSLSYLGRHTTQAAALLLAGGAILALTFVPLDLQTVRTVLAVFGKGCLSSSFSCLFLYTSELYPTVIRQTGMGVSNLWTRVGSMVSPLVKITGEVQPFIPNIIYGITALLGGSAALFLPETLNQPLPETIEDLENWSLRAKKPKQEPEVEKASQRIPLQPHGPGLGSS
Description: as §1

[7] = test system: CYP1A2, 2A6, 2B6, 2C8, 2C9, 2C19, 2D6, 3A4; UGT1A1, 1A3, 1A4, 1A6, 1A9, 2B4, 2B7, 2B15, 2B17; P-gp; BCRP; BSEP; OCT1, OCT2; OATP1B1, OATP1B3; MATE 1, MATE 2-K …; test: Inhibition of enzymes and transporters; format: in vitro ADME
[8] = test system: OATP1B1, OATP1B3, OCT1, P-gp, BCRP; test: In vitro transporter substrate assessment; format: in vitro ADME
[9] = test system: laboratory strains of HIV-1 (subtype B); test: Antiviral activity in PBMCs and 293 cells; format: cell-based; conditions: Human immunodeficiency virus 1, HEK293, n=4 strains
HIV-1 [10] = test: Antiviral activity in combination with other antivirals, cell culture; format: cell-based; conditions: cell culture
[11] = test system: recombinant HIV-1 strain NL432 viruses; format: cell-based
[12] = in vivo
Description: The observed hepatocellular findings in mice may be rodent specific.

[13] = Genotoxicity: bacterial reverse mutation assay, mouse lymphoma assay, in vivo rodent micronucleus assay
[14] = Fertility studies in rats; format: in vivo, rat; conditions: oral, 1,000 mg/kg/day up to 26 weeks, male and female rats
Protein-adjusted IC90 = format: cell-based; conditions: read-out: protein-adjusted IC90 (PA-IC90)
Description: Mar. 4-7, 2019, Seattle, WA.).

[15] = oral administration once daily; cited from earlier work
HIV-1 [16] = test system: HIV-1
[17] = Reproduction and development studies in rats
HIV-1 integrase = HIV-1 integrase (Human immunodeficiency virus type 1 group M subtype B, UniProt P04585)

SMILES: C[C@H]1CO[C@@H]2Cn3cc(C(=O)NCc4ccc(F)cc4F)c(=O)c(O)c3C(=O)N12 [Cabotegravir, (3S,11aR)-N-[(2,4-difluorophenyl)methyl]-6-hydroxy-3-methyl-5,7-dioxo-2,3,5,7,11,11a-hexahydro[1,3]oxazolo[3,2-a]pyrido[1,2-d]pyrazine-8-carboxamide]
- presence in milk [1]: present in milk
- Tmax ([2]; human, im, intramuscular injection, read-out: Tmax, median (converted)): 168 h
- half-life ([2]; human, im, intramuscular injection, read-out: t1/2 (absorption rate limited), mean): 941 to 1930 h
- Major route of elimination [2]: Metabolism
- Metabolic pathways [2]: UGT1A1
- Metabolic pathways ([2]; minor pathway): UGT1A9 (minor)
- fraction unbound [3]: < 0.002
- % of dose excreted as total 14C in feces [4]: 59%
- % of dose excreted as total 14C in urine [4]: 27%
- % of dose excreted as unchanged drug in feces [4]: 47%
- % of dose excreted as unchanged drug in urine [4]: 0%
- Ctrough, geometric mean [5]: 2900 ng/mL
- AUC ([5]; human, in vivo, read-out: AUCtau, geometric mean): 2460 µg·h/mL
- Cmax ([5]; human, in vivo, read-out: Cmax, geometric mean): 4200 ng/mL
- IC50 [6]: 810 nM
- IC50 (OAT3): 410 nM
- inhibition of listed CYP, UGT enzymes and transporters [7]: not a clinically relevant inhibitor
- substrate of OATP1B1, OATP1B3, or OCT1 [8]: not a substrate
- substrate of P-gp and BCRP [8]: is a substrate
- EC50 [9]: 0.22 to 1.7 nM
- antiviral activity in combination with rilpivirine, emtricitabine (FTC), lamivudine (3TC), or tenofovir disoproxil fumarate (TDF) (HIV-1 [10]): not antagonistic
- activity against viruses with NNRTI substitutions K103N or Y188L, or NRTI substitutions M184V, D67N/K70R/T215Y, or V751/F77L/F116Y/Q151M [11]: active
- reduction in susceptibility ([11]; E138K+Q148K): 81 fold
- reduction in susceptibility ([11]; Q148R+N155H): 61 fold
- carcinogenicity ([12]; mouse): not carcinogenic
- carcinogenicity ([12]; rat): not carcinogenic
- genotoxicity [13]: not genotoxic
- effects on reproductive organs, spermatogenesis, mating or fertility [14]: did not cause adverse effects
- IC90 (Protein-adjusted IC90): 0.166 µg/mL (≈ 0.41 µM)
- half-life [15]: 40 h
- decreased susceptibility in virologic failures (HIV-1 [16]; G140R, n=1): 7 fold
- decreased susceptibility in virologic failures (HIV-1 [16]; N155H, n=1): 3 fold
- decreased susceptibility in virologic failures (HIV-1 [16]; Q148R, n=2): 5 fold and 9 fold
- effect on parturition, prenatal and postnatal development study ([17]; oral 1,000 mg/kg/day): delayed the onset of parturition
- embryo-fetal development in rats ([17]; oral 1,000 mg/kg/day, in the presence of maternal toxicity): alterations in fetal growth (decreased body weights)
- placental transfer ([17]; pregnant rats): crosses the placenta
- IC50 (HIV-1 integrase): 3 nM

Reference: patent US12636285B2 (ViiV Healthcare Company, priority 2019, dated 2026)
